According to DBAASP:
Values after ≈ are worked out from the molar mass of the structure shown. Blank lines part the entries; values can stand above or below the compound they belong to.

Assays:
Test in all cases: ≥ marks a high value that may be exact or a test limit, other limits are often not marked, values filed in µg/mL are converted to µM
[1] = test system: Escherichia coli ATCC 25922
[2] = test system: Bacillus subtilis KCTC 1918
[3] = test system: Staphylococcus epidermidis KCTC 1917
[4] = test system: Candida albicans KCTC 7270
[5] = test system: Salmonella typhimurium KCTC 1926
[6] = test system: Pseudomonas aeruginosa ATCC 15692
[7] = test system: Staphylococcus aureus ATCC 25923
[8] = test system: Pseudomonas aeruginosa KCTC 1637
[9] = test system: Escherichia coli KCTC 1682
[10] = test system: Proteus vulgaris KCTC 2433
[11] = test system: Trichosporon beigelii KCTC 7707
[12] = test system: Saccharomyces cerevisiae KCTC 7296
[13] = test system: Staphylococcus aureus KCTC 1621
[14] = test system: Staphylococcus aureus ATCC 12600
[15] = test system: Candida albicans ATCC 10231
Botrytis cinerea = test system: Botrytis cinerea
[16] = test system: Escherichia coli ATCC 11775
[17] = test system: Micrococcus luteus ATCC 9341
[18] = test system: Corynebacterium xerosis C875
[19] = test system: Staphylococcus epidermidis C621
Escherichia coli UB1005 = test system: Escherichia coli UB1005
Escherichia coli DC2 = test system: Escherichia coli DC2
[20] = test system: Enterococcus faecalis ATCC 29212
[21] = test system: Bacillus subtilis ATCC 6633
[22] = test system: Pseudomonas aeruginosa ATCC 27853
Escherichia coli BW25113 = test system: Escherichia coli BW25113

Structure (SMILES): C[C@H](NC(=O)[C@H](C)NC(=O)[C@H](C)NC(=O)[C@H](CS)NC(=O)[C@H](C)NC(=O)[C@H](C)NC(=O)[C@H](C)NC(=O)[C@H](CCCCN)NC(=O)[C@@H](N)CCCCN)C(=O)N[C@@H](C)C(=O)N[C@@H](C)C(=O)N[C@@H](CS)C(=O)N[C@@H](C)C(=O)N[C@@H](C)C(=O)N[C@@H](Cc1c[nH]c2ccccc12)C(=O)N[C@@H](C)C(=O)N[C@@H](C)C(=O)N[C@@H](CS)C(=O)N[C@@H](C)C(=O)N[C@@H](C)C(=O)N[C@@H](C)C(=O)N[C@@H](CCCCN)C(=O)N[C@@H](CCCCN)C(=O)N[C@@H](CCCCN)C(=O)N[C@@H](CCCCN)C(N)=O [KKAAACAAAAACAAWAACAAAKKKK]
MIC [18]: 1 µM (≈ 2.35 µg/mL) | MIC [19]: ≥ 32 µM | MIC (Escherichia coli UB1005): 16 µM (≈ 37.6 µg/mL) | MIC (Escherichia coli DC2): 8 µM (≈ 18.8 µg/mL)

Structure (SMILES): C[C@H](NC(=O)[C@H](C)NC(=O)[C@H](C)NC(=O)[C@H](Cc1ccccc1)NC(=O)[C@H](C)NC(=O)[C@H](C)NC(=O)[C@H](C)NC(=O)[C@H](CCCCN)NC(=O)[C@@H](N)CCCCN)C(=O)N[C@@H](C)C(=O)N[C@@H](C)C(=O)N[C@@H](Cc1ccccc1)C(=O)N[C@@H](C)C(=O)N[C@@H](C)C(=O)N[C@@H](Cc1c[nH]c2ccccc12)C(=O)N[C@@H](C)C(=O)N[C@@H](C)C(=O)N[C@@H](Cc1ccccc1)C(=O)N[C@@H](C)C(=O)N[C@@H](C)C(=O)N[C@@H](C)C(=O)N[C@@H](CCCCN)C(=O)N[C@@H](CCCCN)C(=O)N[C@@H](CCCCN)C(=O)N[C@@H](CCCCN)C(N)=O [KKAAAFAAAAAFAAWAAFAAAKKKK]
MIC [1]: > 32 µM | MIC [18]: 0.25 µM (≈ 0.62 µg/mL) | MIC [20]: > 32 µM | MIC [19]: 2 µM (≈ 4.96 µg/mL) | MIC (Escherichia coli UB1005): 16 µM (≈ 39.7 µg/mL) | MIC [7]: > 32 µM | MIC [21]: 1 µM (≈ 2.48 µg/mL) | MIC [22]: 8 µM (≈ 19.8 µg/mL) | MIC (Escherichia coli DC2): 4 µM (≈ 9.92 µg/mL)

Structure (SMILES): C[C@H](NC(=O)[C@H](C)NC(=O)[C@H](C)NC(=O)[C@H](Cc1ccccc1)NC(=O)[C@H](C)NC(=O)[C@H](CCCCN)NC(=O)[C@@H](N)CCCCN)C(=O)N[C@@H](C)C(=O)N[C@@H](C)C(=O)N[C@@H](Cc1ccccc1)C(=O)N[C@@H](C)C(=O)N[C@@H](C)C(=O)N[C@@H](Cc1c[nH]c2ccccc12)C(=O)N[C@@H](C)C(=O)N[C@@H](C)C(=O)N[C@@H](Cc1ccccc1)C(=O)N[C@@H](C)C(=O)N[C@@H](CCCCN)C(=O)N[C@@H](CCCCN)C(=O)N[C@@H](CCCCN)C(=O)N[C@@H](CCCCN)C(N)=O [KKAFAAAAAFAAWAAFAKKKK]
MIC [1]: 32 µM (≈ 70.3 µg/mL) | MIC [18]: 0.5 µM (≈ 1.1 µg/mL) | MIC [20]: > 32 µM | MIC [19]: 8 µM (≈ 17.6 µg/mL) | MIC (Escherichia coli UB1005): 8 µM (≈ 17.6 µg/mL) | MIC [7]: > 32 µM | MIC [21]: 2 µM (≈ 4.39 µg/mL) | MIC [22]: > 32 µM | MIC (Escherichia coli DC2): 4 µM (≈ 8.78 µg/mL)

Structure (SMILES): C[C@H](NC(=O)[C@H](C)NC(=O)[C@H](C)NC(=O)[C@H](Cc1ccccc1)NC(=O)[C@H](C)NC(=O)[C@H](C)NC(=O)[C@H](Cc1c[nH]c2ccccc12)NC(=O)[C@H](C)NC(=O)[C@H](C)NC(=O)[C@H](Cc1ccccc1)NC(=O)[C@H](C)NC(=O)[C@H](C)NC(=O)[C@H](C)NC(=O)[C@H](C)NC(=O)[C@H](C)NC(=O)[C@H](Cc1ccccc1)NC(=O)[C@H](C)NC(=O)[C@H](C)NC(=O)[C@H](C)NC(=O)[C@H](CCCCN)NC(=O)[C@H](CCCCN)NC(=O)[C@H](CCCCN)NC(=O)[C@H](CCCCN)NC(=O)[C@H](CCCCN)NC(=O)[C@@H](N)CCCCN)C(N)=O [KKKKKKAAAFAAAAAFAAWAAFAAA]
MIC [1]: 16 µM (≈ 39.7 µg/mL) | MIC [18]: 1 µM (≈ 2.48 µg/mL) | MIC [19]: 4 µM (≈ 9.92 µg/mL) | MIC (Escherichia coli UB1005): 16 µM (≈ 39.7 µg/mL) | MIC [22]: 32 µM (≈ 79.4 µg/mL) | MIC (Escherichia coli DC2): 8 µM (≈ 19.8 µg/mL)

Structure (SMILES): CC(C)C[C@H](NC(=O)[C@H](Cc1ccc(O)cc1)NC(=O)[C@@H]1CCCN1)C(=O)N1CCC[C@H]1C(=O)N[C@@H](CCCN=C(N)N)C(=O)N1CCC[C@H]1C(=O)NCC(=O)N[C@@H](CCCN=C(N)N)C(=O)N[C@@H](CCCN=C(N)N)C(=O)N1CCC[C@H]1C(=O)N[C@@H](CCCN=C(N)N)C(=O)N[C@@H](Cc1ccccc1)C(=O)N1CCC[C@H]1C(=O)N1CCC[C@H]1C(=O)N1CCC[C@H]1C(=O)N[C@@H](Cc1ccccc1)C(=O)N1CCC[C@H]1C(=O)O [PYLPRPGRRPRFPPPFP]
MIC (Escherichia coli BW25113): ≥ 64 µM

Structure (SMILES): CC[C@H](C)[C@H](NC(=O)[C@@H]1CCCN1C(=O)[C@@H]1CCCN1C(=O)[C@H](CCCN=C(N)N)NC(=O)[C@H](Cc1ccccc1)NC(=O)[C@@H](N)CCCN=C(N)N)C(=O)N[C@@H](CCCN=C(N)N)C(=O)N[C@@H](CCCN=C(N)N)C(=O)N1CCC[C@H]1C(=O)N1CCC[C@H]1C(=O)N[C@H](C(=O)N[C@@H](CCCN=C(N)N)C(=O)N1CCC[C@H]1C(=O)N1CCC[C@H]1C(=O)N[C@@H](Cc1ccccc1)C(=O)N[C@@H](Cc1c[nH]c2ccccc12)C(=O)N1CCC[C@H]1C(=O)O)[C@@H](C)CC [RFRPPIRRPPIRPPFWP]
MIC (Escherichia coli BW25113): 16 µM (≈ 35 µg/mL)

Structure (SMILES): CC[C@H](C)[C@H](NC(=O)[C@@H]1CCCN1C(=O)[C@@H]1CCCN1C(=O)[C@H](CCCN=C(N)N)NC(=O)[C@H](Cc1c[nH]c2ccccc12)NC(=O)[C@@H](N)CCCN=C(N)N)C(=O)N[C@@H](CCCN=C(N)N)C(=O)N[C@@H](CCCN=C(N)N)C(=O)N1CCC[C@H]1C(=O)N1CCC[C@H]1C(=O)N[C@H](C(=O)N[C@@H](CCCN=C(N)N)C(=O)N1CCC[C@H]1C(=O)N1CCC[C@H]1C(=O)N[C@@H](Cc1c[nH]c2ccccc12)C(=O)N[C@@H](Cc1ccc(O)cc1)C(=O)N1CCC[C@H]1C(=O)O)[C@@H](C)CC [RWRPPIRRPPIRPPWYP]
MIC (Escherichia coli BW25113): 16 µM (≈ 35.9 µg/mL)

Other lines, results leading:

MIC [1]: 2 µM (≈ 4.83 µg/mL) | MIC [2]: 0.39 µM (≈ 0.943 µg/mL) | MIC [3]: 0.39 µM (≈ 0.943 µg/mL) | MIC [4]: 3.13 µM (≈ 7.57 µg/mL) | MIC [5]: 0.09 µM (≈ 0.218 µg/mL) | MIC [6]: 2 µM (≈ 4.83 µg/mL) | MIC [7]: 4 µM (≈ 9.67 µg/mL) | MIC [8]: 1.56 µM (≈ 3.77 µg/mL) | MIC [9]: 0.19 µM (≈ 0.459 µg/mL) | MIC [10]: 0.09 µM (≈ 0.218 µg/mL) | MIC [11]: 1.56 µM (≈ 3.77 µg/mL) | MIC [12]: 1.56 µM (≈ 3.77 µg/mL) | MIC [13]: 0.39 µM (≈ 0.943 µg/mL)
Structure (SMILES): CC[C@H](C)[C@H](NC(=O)[C@H](CCCCN)NC(=O)[C@H](CO)NC(=O)[C@H](Cc1ccccc1)NC(=O)[C@H](CC(C)C)NC(=O)[C@H](CCCCN)NC(=O)[C@@H]1CCCN1C(=O)[C@H](CC(C)C)NC(=O)[C@H](CCCN=C(N)N)NC(=O)[C@H](CCCCN)NC(=O)[C@H](Cc1ccccc1)NC(=O)[C@@H](NC(=O)[C@H](CCCCN)NC(=O)[C@H](CCCCN)NC(=O)[C@H](C)N)C(C)C)C(=O)N[C@@H](Cc1c[nH]c2ccccc12)C(=O)N[C@@H](CC(N)=O)C(=O)N[C@@H](Cc1c[nH]c2ccccc12)C(=O)N[C@@H](CCCCN)C(N)=O [AKKVFKRLPKLFSKIWNWK]

MIC [14]: 25 µM (≈ 36.5 µg/mL) | MIC [15]: 100 µM (≈ 146 µg/mL) | MIC (Botrytis cinerea): 5 µM (≈ 7.3 µg/mL) | MIC [16]: ≥ 200 µM
Structure (SMILES): CC(C)C[C@H](NC(=O)[C@H](C)NC(=O)[C@H](CO)NC(=O)[C@@H](NC(=O)[C@@H](NC(=O)[C@H](CO)NC(=O)[C@H](CCCCN)NC(=O)[C@@H](NC(=O)[C@H](CC(C)C)NC(=O)CNC(=O)[C@H](CC(C)C)NC(=O)[C@H](CC(C)C)NC(=O)[C@H](CC(=O)O)NC(=O)[C@@H](N)Cc1ccccc1)C(C)C)C(C)C)C(C)C)C(N)=O [FDLLGLVKSVVSAL]

MIC [17]: 0.4 µM (≈ 0.746 µg/mL)
Structure (SMILES): CC[C@H](C)[C@H](N)C(=O)N[C@@H](C)C(=O)N1CCC[C@H]1C(=O)N[C@@H](Cc1c[nH]c2ccccc12)C(=O)N[C@@H](CCCCN)C(=O)N[C@@H](Cc1c[nH]c2ccccc12)C(=O)N1CCC[C@H]1C(=O)N[C@@H](Cc1c[nH]c2ccccc12)C(=O)N[C@@H](Cc1c[nH]c2ccccc12)C(=O)N1CCC[C@H]1C(=O)N[C@@H](Cc1c[nH]c2ccccc12)C(=O)N[C@@H](CCCN=C(N)N)C(=O)N[C@@H](CCCN=C(N)N)C(N)=O [IAPWKWPWWPWRR]

MIC [14]: ≥ 200 µM | MIC [15]: > 200 µM | MIC (Botrytis cinerea): ≥ 200 µM | MIC [16]: ≥ 200 µM
Structure (SMILES): CSCC[C@H](NC(=O)[C@H](C)NC(=O)[C@H](C)NC(=O)[C@@H]1CCCN1C(=O)[C@H](CO)NC(=O)[C@@H](N)CC(C)C)C(=O)N[C@@H](C)C(=O)N[C@@H](CO)C(=O)N[C@@H](CC(C)C)C(=O)N[C@@H](C)C(N)=O [LSPAAMASLA]
